Like-named read-outs stand apart in the source and are kept apart here.
What was measured:
Rhesus PDE2A3 = Rhesus PDE2A3 (Macaca mulatta, UniProt B3VTJ2); assay: PDE2 fluorescence polarization (IMAP FP) assay, rhesus PDE2A3; type: biochemical, rhesus macaque
human PDE2A1 = human PDE2A1 (Homo sapiens (Human), UniProt O00408); assay: PDE selectivity IMAP FP assay, human PDE2A1; type: biochemical; details: Human PDE2
How it was run: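 Compound titrations run against PDE2 in Tris HCl pH 7.2 buffer with MgCl2 and DTT for 60 min at room temperature, using 50 nM FAM-cAMP plus 1000 nM cGMP and enzyme giving 20% conversion.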

[1] = Lab B, read-out: Rhesus PDE2 Ki (nM) Lab B
[2] = Lab B, read-out: Human PDE2 Ki (nM) Lab B
[3] = Lab A, read-out: Rhesus PDE2 Ki (nM) Lab A
[4] = Lab A, read-out: Human PDE2 Ki (nM) Lab A

Chain of Rhesus PDE2A3 (B3VTJ2 1-941): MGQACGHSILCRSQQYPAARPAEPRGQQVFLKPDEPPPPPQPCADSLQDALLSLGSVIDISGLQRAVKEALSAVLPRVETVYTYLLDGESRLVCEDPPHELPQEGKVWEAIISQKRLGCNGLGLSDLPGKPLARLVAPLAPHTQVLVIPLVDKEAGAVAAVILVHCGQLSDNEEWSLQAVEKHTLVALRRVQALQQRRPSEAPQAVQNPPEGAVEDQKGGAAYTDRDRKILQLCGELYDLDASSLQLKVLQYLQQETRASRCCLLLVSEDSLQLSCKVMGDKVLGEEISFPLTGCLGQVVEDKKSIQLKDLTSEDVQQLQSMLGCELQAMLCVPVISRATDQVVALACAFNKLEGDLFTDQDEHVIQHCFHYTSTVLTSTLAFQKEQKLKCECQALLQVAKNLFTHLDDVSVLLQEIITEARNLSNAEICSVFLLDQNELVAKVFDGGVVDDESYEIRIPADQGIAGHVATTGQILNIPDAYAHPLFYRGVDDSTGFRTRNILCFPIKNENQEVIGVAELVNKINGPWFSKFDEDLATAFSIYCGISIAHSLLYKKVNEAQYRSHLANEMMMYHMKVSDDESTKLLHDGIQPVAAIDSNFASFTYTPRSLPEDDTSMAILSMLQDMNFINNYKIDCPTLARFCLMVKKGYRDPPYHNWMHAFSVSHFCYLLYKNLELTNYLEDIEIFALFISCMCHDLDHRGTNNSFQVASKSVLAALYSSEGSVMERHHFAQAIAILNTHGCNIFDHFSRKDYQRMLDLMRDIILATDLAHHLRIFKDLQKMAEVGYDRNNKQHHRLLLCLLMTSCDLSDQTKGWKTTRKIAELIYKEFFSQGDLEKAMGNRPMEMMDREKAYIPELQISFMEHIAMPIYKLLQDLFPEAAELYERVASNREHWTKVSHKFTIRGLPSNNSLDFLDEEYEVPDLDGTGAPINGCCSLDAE
Chain of human PDE2A1 (O00408 other isoform, or with tags, fused parts or gaps): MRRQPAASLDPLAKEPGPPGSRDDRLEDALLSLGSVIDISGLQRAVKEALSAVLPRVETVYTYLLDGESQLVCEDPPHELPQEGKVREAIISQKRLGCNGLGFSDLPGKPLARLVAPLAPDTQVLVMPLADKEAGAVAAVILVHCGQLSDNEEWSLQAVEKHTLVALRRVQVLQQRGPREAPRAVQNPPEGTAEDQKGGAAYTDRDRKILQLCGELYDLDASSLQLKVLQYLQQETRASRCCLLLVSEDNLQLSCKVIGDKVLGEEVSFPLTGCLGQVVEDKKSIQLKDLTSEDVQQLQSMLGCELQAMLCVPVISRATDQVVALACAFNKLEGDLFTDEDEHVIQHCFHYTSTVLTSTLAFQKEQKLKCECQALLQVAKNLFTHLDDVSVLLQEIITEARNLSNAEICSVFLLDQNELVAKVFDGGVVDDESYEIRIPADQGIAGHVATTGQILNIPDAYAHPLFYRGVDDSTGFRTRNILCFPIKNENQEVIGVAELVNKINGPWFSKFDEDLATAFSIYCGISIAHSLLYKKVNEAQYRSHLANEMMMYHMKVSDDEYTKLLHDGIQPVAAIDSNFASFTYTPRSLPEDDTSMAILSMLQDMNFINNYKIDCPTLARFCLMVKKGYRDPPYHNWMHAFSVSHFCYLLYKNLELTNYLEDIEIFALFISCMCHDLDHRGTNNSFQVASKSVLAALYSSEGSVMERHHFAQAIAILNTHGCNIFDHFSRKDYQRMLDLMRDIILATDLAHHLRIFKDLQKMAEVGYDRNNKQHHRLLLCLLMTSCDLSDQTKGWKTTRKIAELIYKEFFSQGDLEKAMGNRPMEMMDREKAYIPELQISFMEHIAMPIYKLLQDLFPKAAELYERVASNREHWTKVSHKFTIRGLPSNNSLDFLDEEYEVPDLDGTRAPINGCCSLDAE

| SMILES | Ki (Rhesus PDE2A3; [1]) | Ki (human PDE2A1; [2]) | Ki (Rhesus PDE2A3; [3]) | Ki (human PDE2A1; [4]) |
| --- | --- | --- | --- | --- |
| CC(C)C(c1ccc(C(C)(C)C)cc1)n1nc(CC(F)(F)F)c2c(=O)[nH]c(O)nc21 (single isomer, unassigned) [Example 260, (R)- or (S)-1-(1-(4-tert-Butylphenyl)-2-methylpropyl)-6-hydroxy-3-(2,2,2-trifluoroethyl)-1H-pyrazolo[3,4-d]pyrimidin-4(5H)-one] | 26 nM | 25 nM | – | – |
| CC(c1ccc(C(F)(F)F)cc1)n1nc(C(F)(F)C(F)(F)F)c2c(=O)[nH]c(O)nc21 (single isomer, unassigned) [Example 266, (R)- or (S)-6-Hydroxy-3-(perfluoroethyl)-1-(1-(4-(trifluoromethyl)phenyl)ethyl)-1H-pyrazolo[3,4-d]pyrimidin-4(5H)-one] | 14 nM | 13 nM | – | – |
| CC(c1ccc(OC(F)(F)F)cc1)n1nc(C(F)F)c2c(=O)[nH]c(O)nc21 (single isomer, unassigned) [Example 274, (S)- or (R)-3-(Difluoromethyl)-6-hydroxy-1-(1-(4-(trifluoromethoxy)phenyl)ethyl)-1H-pyrazolo[3,4-d]pyrimidin-4(5H)-one] | 3.2 nM | 4 nM | – | – |
| CC(c1ccc(C(F)(F)F)c(F)c1)n1nc(C(F)F)c2c(=O)[nH]c(O)nc21 (single isomer, unassigned) [Example 278, (S)- or (R)-3-(Difluoromethyl)-1-(1-(3-fluoro-4-(trifluoromethyl)phenyl)ethyl)-6-hydroxy-1H-pyrazolo[3,4-d]pyrimidin-4(5H)-one] | 1.2 nM | 1.6 nM | – | – |
| O=c1[nH]c(O)nc2c1c(C(F)F)nn2C(c1ccc(C(F)(F)F)cc1)C1CC1 (single isomer, unassigned) [Example 279, (R)- or (S)-1-(Cyclopropyl(4-(trifluoromethyl)phenyl)methyl)-3-(difluoromethyl)-6-hydroxy-1H-pyrazolo[3,4-d]pyrimidin-4(5H)-one] | 1.8 nM | 1.9 nM | – | – |
| CC(C)C(c1ccc(C(F)(F)F)cc1)n1nc(C(F)F)c2c(=O)[nH]c(O)nc21 (single isomer, unassigned) [Example 281, (R)- or (S)-3-(Difluoromethyl)-6-hydroxy-1-(2-methyl-1-(4-(trifluoromethyl)phenyl)propyl)-1H-pyrazolo[3,4-d]pyrimidin-4(5H)-one] | 1.2 nM | 1.3 nM | – | – |
| CC(C)C(c1ccc(C(F)(F)F)cc1)n1nc(C(F)F)c2c(=O)[nH]c(O)nc21 (single isomer, unassigned) [Example 282, (S)- or (R)-3-(Difluoromethyl)-6-hydroxy-1-(2-methyl-1-(4-(trifluoromethyl)phenyl)propyl)-1H-pyrazolo[3,4-d]pyrimidin-4(5H)-one] | 51 nM | 59 nM | – | – |
| CCC(c1ccc(C(F)(F)F)cc1)n1nc(C(F)F)c2c(=O)[nH]c(O)nc21 (single isomer, unassigned) [Example 286, (S)- or (R)-3-(Difluoromethyl)-6-hydroxy-1-(1-(4-(trifluoromethyl)phenyl)propyl)-1H-pyrazolo[3,4-d]pyrimidin-4(5H)-one] | 1.5 nM | 2.2 nM | – | – |
| CC(c1ccc(OC(F)(F)F)c(F)c1)n1nc(C(F)F)c2c(=O)[nH]c(O)nc21 (single isomer, unassigned) [Example 287, (R)- or (S)-3-(Difluoromethyl)-1-(1-(3-fluoro-4-(trifluoromethoxy)phenyl)ethyl)-6-hydroxy-1H-pyrazolo[3,4-d]pyrimidin-4(5H)-one] | 44 nM | 38 nM | – | – |
| CC(c1ccc(OC(F)(F)F)c(F)c1)n1nc(C(F)F)c2c(=O)[nH]c(O)nc21 (single isomer, unassigned) [Example 288, (S)- or (R)-3-(Difluoromethyl)-1-(1-(3-fluoro-4-(trifluoromethoxy)phenyl)ethyl)-6-hydroxy-1H-pyrazolo[3,4-d]pyrimidin-4(5H)-one] | 1.6 nM | 2.4 nM | – | – |
| N#CCc1nn(C(c2ccc(C(F)(F)F)cc2)C2CC2)c2nc(O)[nH]c(=O)c12 (single isomer, unassigned) [Example 296] | 8.6 nM | 7.3 nM | – | – |
| CC(c1ccc(OC(F)(F)F)c(F)c1)n1nc(CC#N)c2c(=O)[nH]c(O)nc21 (single isomer, unassigned) [Example 299, (R)- or (S)-2-(1-(1-(3-Fluoro-4-(trifluoromethoxy)phenyl)ethyl)-6-hydroxy-4-oxo-4,5-dihydro-1H-pyrazolo[3,4-d]pyrimidin-3-yl)acetonitrile] | 21 nM | 17 nM | – | – |
| CC(c1ccc(OC(F)(F)F)cc1)n1nc(CO)c2c(=O)[nH]c(O)nc21 (stereo not shown) [Example 5] | 126 nM | – | 77 nM | 59 nM |
| CC(c1ccc(C2CC2)cc1)n1nc(CO)c2c(=O)[nH]c(O)nc21 (stereo not shown) [Example 6, 1-(1-(4-Cyclopropylphenyl)ethyl)-6-hydroxy-3-(hydroxymethyl)-1H-pyrazolo[3,4-d]pyrimidin-4(5H)-one] | – | – | 78 nM | 50 nM |
| CC(c1ccc(C(C)(C)C)cc1)n1nc(CO)c2c(=O)[nH]c(O)nc21 (stereo not shown) [Example 7, 1-(1-(4-tert-Butylphenyl)ethyl)-6-hydroxy-3-(hydroxymethyl)-1H-pyrazolo[3,4-d]pyrimidin-4(5H)-one] | 64 nM | 59 nM | 51 nM | 27 nM |
| O=c1[nH]c(O)nc2c1c(CO)nn2C1(c2ccc(C(F)(F)F)cc2)CCC1 [Example 26, 6-Hydroxy-3-(hydroxymethyl)-1-(1-(4-(trifluoromethyl)phenyl)cyclobutyl)-1H-pyrazolo[3,4-d]pyrimidin-4(5H)-one] | 50 nM | 39 nM | – | – |
| O=c1[nH]c(O)nc2c1c(CO)nn2C(CF)c1ccc(C(F)(F)F)cc1 (stereo not shown) [Example 33, 1-(2-Fluoro-1-(4-(trifluoromethyl)phenyl)ethyl)-6-hydroxy-3-(hydroxymethyl)-1H-pyrazolo[3,4-d]pyrimidin-4(5H)-one] | 50 nM | 71 nM | – | – |
| CC(c1ccc(OC(F)(F)F)cc1)n1nc(CF)c2c(=O)[nH]c(O)nc21 (stereo not shown) [Example 36, 3-(Fluoromethvl)-6-hydroxy-1-(1-(4-(trifluoromethoxy)phenyl)ethyl)-1H-pyrazolo[3,4-d]pyrimidin-4(5H)-one] | 18 nM | 17 nM | 11 nM | 6.5 nM |
| Cc1ccc(C(C)n2nc(CF)c3c(=O)[nH]c(O)nc32)cc1 (stereo not shown) [Example 37, 3-(Fluoromethyl)-6-hydroxy-1-(1-p-tolylethyl)-1H-pyrazolo[3,4-d]pyrimidin-4(5H)-one] | – | – | 85 nM | 44 nM |
| CC(c1ccc(OC(F)(F)F)c(F)c1)n1nc(CF)c2c(=O)[nH]c(O)nc21 (stereo not shown) [Example 38, 1-(1-(3-Fluoro-4-(trifluoromethoxy)phenyl)ethyl)-3-(fluoromethyl)-6-hydroxy-1H-pyrazolo[3,4-d]pyrimidin-4(5H)-one] | 8.3 nM | 8.5 nM | 7.2 nM | 2.8 nM |
| O=c1[nH]c(O)nc2c1c(CF)nn2C(c1ccc(C(F)(F)F)cc1)C1CC1 (stereo not shown) [Example 39, 1-(Cyclopropyl(4-(trifluoromethyl)phenyl)methyl)-3-(fluoromethyl)-6-hydroxy-1H-pyrazolo[3,4-d]pyrimidin-4(5H)-one] | 5.5 nM | 6.3 nM | 3.6 nM | 2.2 nM |
| CC(C)C(c1ccc(C(F)(F)F)cc1)n1nc(CF)c2c(=O)[nH]c(O)nc21 (stereo not shown) [Example 40, 3-(Fluoromethyl)-6-hydroxy-1-(2-methyl-1-(4-(trifluoromethyl)phenyl)propyl)-1H-pyrazolo[3,4-d]pyrimidin-4(5H)-one] | 2 nM | 2.1 nM | 1.7 nM | 0.56 nM |
| CC(c1ccc(C(F)(F)F)cc1)n1nc(CF)c2c(=O)[nH]c(O)nc21 (stereo not shown) [Example 41, 3-(Fluoromethyl)-6-hydroxy-1-{1-[4-(trifluoromethyl)phenyl]ethyl}-1,5-dihydro-4H-pyrazolo[3,4-d]pyrimidin-4-one] | – | – | 3.5 nM | 2.3 nM |
| O=c1[nH]c(O)nc2c1c(CF)nn2C1(c2ccc(C(F)(F)F)cc2)CCC1 [Example 46, 3-(Fluoromethyl)-6-hydroxy-1-(1-(4-(trifluoromethyl)phenyl)cyclobutyl)-1H-pyrazolo[3,4-d]pyrimidin-4(5H)-one] | 11 nM | 9.2 nM | – | – |
| C[C@@H](c1ccc(C(C)(C)C)cc1)n1nc(CF)c2c(=O)[nH]c(O)nc21 [Example 47, (S)-1-(1-(4-tert-Butylphenyl)ethyl)-3-(fluoromethyl)-6-hydroxy-1H-pyrazolo[3,4-d]pyrimidin-4(5H)-one] | 6.9 nM | 5.1 nM | – | – |
| O=c1[nH]c(O)nc2c1c(CF)nn2[C@H](c1ccc(C(F)(F)F)c(F)c1)C1CC1 [Example 48, (S)-1-(Cyclopropyl(3-fluoro-4-(lrifluoromethyl)phenyl)methyl)-3-(fluoromethyl)-6-hydroxy-1H-pyrazolo[3,4-d]pyrimidin-4(5H)-one] | 6.2 nM | 5.6 nM | – | – |
| CC(C)[C@@H](c1ccc(C(C)(C)C)cc1)n1nc(CF)c2c(=O)[nH]c(O)nc21 [Example 49, (S)-1-(1-(4-tert-Bulylphenyl)-2-melhylpropyl)-3-(fluoromethyl)-6-hydroxy-1H-pyrazolo[3,4-d]pyrimidin-4(5H)-one] | 2.5 nM | 2.3 nM | – | – |
| C[C@@H](c1ccc(S(F)(F)(F)(F)F)cc1)n1nc(CF)c2c(=O)[nH]c(O)nc21 [Example 50, (S)-3-(Fluoromethyl)-6-hydroxy-1-(1-(4-(pentafluorolhio)phenyl)ethyl)-1H-pyrazolo[3,4-d]pyrimidin-4(5H)-one] | 6.8 nM | 7 nM | – | – |
